Results reported in ChEMBL document CHEMBL4330125, “Fluoromethylcyclopropylamine derivatives as potential in vivo toxicophores - A cautionary disclosure” (Bioorg Med Chem Lett, 2019).

Assays:
Conditions in all cases: in vivo
[1] = Toxicity in CD-1 mouse assessed as ataxia at 5 mg/kg, po administered as single dose via gavage measured after 5 hrs; type: organism-based
[2] = Hepatotoxicity in CD-1 mouse assessed as appearance of mottled organ at 10 mg/kg, po administered as single dose via gavage measured after 24 hrs; type: toxicity, organism-based
[3] = Toxicity in CD-1 mouse assessed as gastrointestinal bleeding at 10 mg/kg, po administered as single dose via gavage measured after 24 hrs; type: organism-based
[4] = Toxicity in CD-1 mouse at 5 mg/kg, po administered as single dose via gavage; type: organism-based
[5] = Ratio of fCmax in CD-1 mouse at 10 mg/kg, po to IC50 for PARG in human HeLa cells; type: ADME, organism-based
[6] = Hepatotoxicity in CD-1 mouse assessed as appearance of pale yellow color organ at 10 mg/kg, po administered as single dose via gavage measured after 24 hrs; type: toxicity, organism-based
[7] = Toxicity in CD-1 mouse at 160 mg/kg, po administered as single dose via gavage; type: organism-based

Row | SMILES | Activity [1] | Activity [4] | further results
1 | CCn1c(=O)n(Cc2cc(C)on2)c(=O)c2cc(S(=O)(=O)NC3(CF)CC3)ccc21 | Toxic | – | –
2 | CCn1c(=O)n(Cc2cnn(C)c2)c(=O)c2cc(S(=O)(=O)NC3(CF)CC3)ccc21 | Toxic | Non-Toxic | Activity [2]: Toxic; Activity [3]: Toxic; Ratio [5]: Nd(Toxic); Activity [6]: Toxic
3 | Cn1cc(Cn2c(=O)c3cc(S(=O)(=O)NC4(CF)CC4)ccc3n(C)c2=O)cn1 | Toxic | – | –
4 | CCn1c(=O)n(Cc2cnn(C)c2)c(=O)c2cc(S(=O)(=O)NC3(C)CC3)ccc21 | Toxic | Non-Toxic | –
5 | Cn1cc(Cn2c(=O)c3cc(S(=O)(=O)NC4(C)CC4)ccc3n(Cc3ccn(C)n3)c2=O)cn1 | – | Non-Toxic | Activity [7]: Non-Toxic
6 | Cn1cc(Cn2c(=O)c3cc(S(=O)(=O)NC4(C)CC4)ccc3n(C)c2=O)cn1 | Toxic | Non-Toxic | –
7 | Cn1cc(Cn2c(=O)c3cc(S(=O)(=O)NC4(CF)CC4)ccc3n(Cc3ccn(C)n3)c2=O)cn1 | – | Non-Toxic | –
